From ChEMBL document CHEMBL5321199, “Development of a series of quinazoline-2,5-diamine derivatives as potent hematopoietic progenitor kinase 1 (HPK1) inhibitors” (Eur J Med Chem, 2023) come the findings set out here.

In test [1] the target is T1, Mitogen-activated protein kinase kinase kinase kinase 1 (Homo sapiens, UniProt Q92918). Put plainly: Inhibition of HPK1 (unknown origin) at 100 nM using myelin basic protein as substrate incubated for 60 mins in presence of ATP by ADP-Glo kinase assay relative to control.
Target sequence in this assay (Q92918 whole entry, looked up): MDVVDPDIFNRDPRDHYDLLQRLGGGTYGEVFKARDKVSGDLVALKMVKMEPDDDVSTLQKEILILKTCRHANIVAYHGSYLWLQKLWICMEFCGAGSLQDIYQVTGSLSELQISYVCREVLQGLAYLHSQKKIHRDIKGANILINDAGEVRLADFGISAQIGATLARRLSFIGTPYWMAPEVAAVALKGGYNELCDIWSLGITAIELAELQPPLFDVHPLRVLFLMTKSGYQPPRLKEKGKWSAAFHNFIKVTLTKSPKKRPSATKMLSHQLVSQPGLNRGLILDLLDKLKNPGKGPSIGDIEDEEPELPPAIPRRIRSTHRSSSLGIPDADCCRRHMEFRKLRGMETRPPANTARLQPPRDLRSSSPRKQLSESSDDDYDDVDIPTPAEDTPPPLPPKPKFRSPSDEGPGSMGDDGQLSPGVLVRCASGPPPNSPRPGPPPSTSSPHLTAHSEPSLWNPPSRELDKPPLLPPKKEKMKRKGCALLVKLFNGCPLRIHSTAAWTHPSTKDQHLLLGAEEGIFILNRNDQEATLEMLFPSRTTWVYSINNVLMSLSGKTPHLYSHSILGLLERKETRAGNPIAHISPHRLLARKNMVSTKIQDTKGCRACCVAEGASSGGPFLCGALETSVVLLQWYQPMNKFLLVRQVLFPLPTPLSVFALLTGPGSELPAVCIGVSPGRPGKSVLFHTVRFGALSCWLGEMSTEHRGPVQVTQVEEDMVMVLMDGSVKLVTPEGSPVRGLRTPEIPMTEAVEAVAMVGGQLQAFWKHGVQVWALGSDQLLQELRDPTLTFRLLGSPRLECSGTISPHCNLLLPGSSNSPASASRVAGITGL
The target in test [2] is T1, Mitogen-activated protein kinase kinase kinase kinase 1. Kind of test: Inhibition of HPK1 (unknown origin) at 1 uM using myelin basic protein as substrate incubated for 60 mins in presence of ATP by ADP-Glo kinase assay relative to control.
Target sequence in this assay (Q92918 whole entry, looked up): as above
The target is the same in test [3]. Kind of test: Inhibition of HPK1 (unknown origin) using myelin basic protein as substrate incubated for 60 mins in presence of ATP by ADP-Glo kinase assay.
Target sequence in this assay (Q92918 whole entry): as the sequence (Q92918 whole entry, looked up) above
The target is the same in test [4]. Put plainly: Inhibition of HPK1 in human Jurkat E6.1 cells assessed as phosphorylation of SLP76 at serine 376 residue incubated for 4 hrs by HTRF assay. In kind it is cell-based. On the technique in general: Time-resolved FRET reads energy transfer from a long-lived donor to a nearby acceptor.
Target sequence in this assay (Q92918 whole entry): as the sequence (Q92918 whole entry, looked up) above
Test [5] has the same target. Kind of test: Inhibition of N-terminal DYKDDDDK tagged HPK1 CD (1 to 346 residues) (unknown origin) incubated for 1 hr in presence of ATP by TR-FRET assay.
Target sequence in this assay (Q92918 whole entry): as the sequence (Q92918 whole entry, looked up) above
Test [6] has the same target. Kind of test: Inhibition of HPK1 in human PBMC cells assessed as reduction in SLP76 phosphorylation at Ser376 residue preincubated with compound for 1 hr followed by stimulation with CD3/CD28-dynabead by ELISA assay. In kind it is cell-based. Background: ELISA stands for enzyme-linked immunosorbent assay.
Target sequence in this assay (Q92918 whole entry): as the sequence (Q92918 whole entry, looked up) above
For test [7] the target is unchanged. Kind of test: Inhibition of HPK1 in human PBMC cells assessed as increase in IL-2 release preincubated with compound for 1 hr followed by stimulation with CD3/CD28-dynabead measured after 16 to 18 hrs by ELISA assay. In kind it is cell-based.
Target sequence in this assay (Q92918 whole entry): as the sequence (Q92918 whole entry, looked up) above
Test [8] shares this target. Kind of test: Inhibition of HPK1 in human Jurkat E6.1 cells assessed as reduction in SLP76 phosphorylation at Serine 376 residue preincubated with compound for 2 hrs followed by stimulation with alphaCD3/CD28 measured after 10 mins by Western blotting analysis. In kind it is cell-based.
Target sequence in this assay (Q92918 whole entry): as the sequence (Q92918 whole entry, looked up) above
The target is the same in test [9]. Put plainly: Inhibition of HPK1 in human Jurkat E6.1 cells assessed as reduction in SLP76 phosphorylation at Serine 376 residue at 0.4 to 100 nM preincubated with compound for 2 hrs followed by stimulation with alphaCD3/CD28 measured after 10 mins by Western blotting analysis. The note with it: dose 0.4-100 nM, time 130.0 min. In kind it is cell-based. Background: A western blot detects proteins with antibodies after separation by electrophoresis.
Target sequence in this assay (Q92918 whole entry, looked up): as above

For test [10] the target is unchanged. Kind of test: Inhibition of HPK1 in human Jurkat E6.1 cells assessed as reduction in SLP76 phosphorylation at Serine 376 residue at 33 nM preincubated with compound for 2 hrs followed by stimulation with alphaCD3/CD28 measured after 10 mins by Western blotting analysis. In kind it is cell-based. Conditions: time 130.0 min.
Target sequence in this assay (Q92918 whole entry, looked up): as above
Test [11] shares this target. Kind of test: Inhibition of HPK1 in human PBMC cells assessed as increase in IL-2 release at above 1 uM preincubated with compound for 1 hr followed by stimulation with alphaCD3/CD28 measured after 48 hrs by ELISA assay. In kind it is cell-based. Conditions: time 49.0 hrs.
Target sequence in this assay (Q92918 whole entry, looked up): as above

In general, inhibition refers to the change of the read-out against control, counted positive when it falls. As usually defined, the IC50 is the concentration that gives 50% inhibition. What is called EC50 is the concentration at which the effect is half-maximal.

The source made the active and inactive calls. The rule behind the calls is not given here.

`Nc1cc(-c2ccncc2)cc2nc(Nc3cnn(C4CC4)c3)ncc12`: the inhibition in test [1] was -3.3%; in test [2] it was 24.1%.

Consider `Cc1c(-c2cc(N)c3cnc(Nc4ccc5c(c4)CCN(C)C5)nc3c2)cnc2c1NCCO2`, for which, in test [3], the IC50 was 4.8 nM.

Take `Cc1nn(C)c(C)c1Nc1ncc2c(N)cc(-c3cnc4c(c3C)NCCO4)cc2n1`: the inhibition in test [1] came to 7.5%.

As for `Cc1c(-c2cc(N)c3cnc(Nc4ccccc4)nc3c2)cnc2c1NCCO2`, the IC50 in [3] was 6.2 nM.

Turning to `Cc1c(-c2cc(N)c3cnc(Nc4cc(C)n(C)n4)nc3c2)cnc2c1NCCO2`, the IC50 in test [3] was 53 nM.

On to `CNCCc1ccc(Nc2ncc3c(N)cc(-c4cnc5c(c4C)NCCO5)cc3n2)cc1`, for which the IC50 in test [3] amounted to 5.6 nM.

`CCn1cc(Nc2ncc3c(N)cc(-c4cnc5c(c4C)NCCO5)cc3n2)cn1`: the IC50 in [3] turned out to be 12 nM.

On to `Cc1c(-c2cc(N)c3cnc(Nc4cnn(C5CC5)c4)nc3c2)cnn1C`, for which the half-inhibitory concentration (IC50) in [3] amounted to 61.1 nM. For the same molecule, the inhibition stood at 53.6% in test [1] and 90.9% in test [2].

Consider `Cc1c(-c2cc(N)c3cnc(NC(=O)C4CC4)nc3c2)cnc2c1NCCO2`, for which the inhibition in test [1] worked out at 4.7%.

On to `CNCc1cccc(Nc2ncc3c(N)cc(-c4cnc5c(c4C)NCCO5)cc3n2)c1`, for which, in test [3], the half-inhibitory concentration (IC50) amounted to 5 nM.

On to `Cc1c(-c2cc(N)c3cnc(Nc4ccc5c(c4)CCNC5)nc3c2)cnc2c1NCCO2`, for which the half-inhibitory concentration (IC50) in test [3] was 4.3 nM.

`CN1CCC(c2ncc(-c3cnc(N)c(OCc4cccc(C#CC(C)(C)O)c4)c3)s2)CC1`: the IC50 in test [4] was under 100 nM.

In the case of `Cc1c(-c2cc(N)c3cnc(Nc4ccccn4)nc3c2)cnc2c1NCCO2`, the IC50 in test [3] was 95.7 nM.

Regarding `Cn1nccc1-c1cc(N)c2cnc(Nc3cnn(C4CC4)c3)nc2c1`, the inhibition in test [1] came to 23.2%; in test [2], 49.2%.

`Cc1c(-c2cc(N)c3cnc(Nc4cnn(C(C)C)c4)nc3c2)cnc2c1NCCO2`: the IC50 in test [3] turned out to be 6.4 nM.

As to `CNCCc1cccc(Nc2ncc3c(N)cc(-c4cnc5c(c4C)NCCO5)cc3n2)c1`, the IC50 in [3] was 6 nM.

Consider `COc1cc2c(cc1Nc1ncc3c(N)cc(-c4cnc5c(c4C)NCCO5)cc3n1)CN(C)CC2`, for which the concentration for half-maximal inhibition (IC50) in test [3] was 7.3 nM.

With `Cc1c(-c2cc(N)c3cnc(Nc4ccncc4)nc3c2)cnc2c1NCCO2`, in [3], the half-maximal inhibitory concentration (IC50) turned out to be 5.7 nM.

For `Cc1c(N)cncc1-c1cc(N)c2cnc(Nc3cnn(C4CC4)c3)nc2c1`, the IC50 in [3] worked out at 10.4 nM. Besides, the inhibition in test [1] turned out to be 93%.

With `Cc1c(-c2cc(N)c3cnc(Nc4cccnc4)nc3c2)cnc2c1NCCO2`, the IC50 in test [3] stood at 5.5 nM.

In the case of `Cc1nn(C)cc1-c1cc(N)c2cnc(Nc3cnn(C4CC4)c3)nc2c1`, the inhibition is -5.1% in test [1] and 25.8% in test [2].

Regarding `Cc1c(-c2cc3cc(NC(=O)C4CC4)ncc3c(N)c2F)cnc2c1NCCO2`, the concentration for half-maximal inhibition (IC50) amounted to 0.067 nM in test [5], 84 nM in test [6], 3.1 nM in test [3] and 6.1 nM in test [8]. Moreover, in test [7], the EC50 is 16 nM. The inhibition in test [1] was determined as 97.9%. Moreover, the inhibition entry in test [9] was “Active”.

As for `CCN1CCc2ccc(Nc3ncc4c(N)cc(-c5cnc6c(c5C)NCCO6)cc4n3)cc2C1`, the concentration for half-maximal inhibition (IC50) in [3] is 6.9 nM.

Consider `Nc1cc(-c2cccnc2)cc2nc(Nc3cnn(C4CC4)c3)ncc12`, for which, in test [3], the IC50 amounted to 61.4 nM. Also, the inhibition in test [1] came to 56.2%; in [2], 86%.

As to `Cc1ccc(-c2cc(N)c3cnc(Nc4cnn(C5CC5)c4)nc3c2)cn1`, the figures for the inhibition in test [1] and in [2] were 36.2% and 85.9%, respectively.

For the molecule `Cc1c(-c2cc(N)c3cnc(Nc4cnn(C)c4C)nc3c2)cnc2c1NCCO2`, the IC50 in test [3] stood at 35.7 nM.

Turning to `Cc1cncc(-c2cc(N)c3cnc(Nc4cnn(C5CC5)c4)nc3c2)c1`, the values for the inhibition in test [1] and in [2] were 42.7% and 87.6%, respectively.

For the molecule `Cc1c(-c2cc(N)c3cnc(Nc4ccc5c(c4)CNCC5)nc3c2)cnc2c1NCCO2`, the 50% inhibitory concentration (IC50) in test [3] turned out to be 3 nM.

Take `Cc1c(-c2cc(N)c3cnc(Nc4ccn(C)n4)nc3c2)cnc2c1NCCO2`: the IC50 in test [3] was 12.7 nM.

As for `Cn1cc(-c2cc(N)c3cnc(Nc4cnn(C5CC5)c4)nc3c2)cn1`, in [3], the half-inhibitory concentration (IC50) worked out at 50.5 nM. For the same molecule, the inhibition in test [1] is 68.6%; in [2] it was 95.8%.

`Cc1c(-c2cc(N)c3cnc(Nc4cnn(C)c4)nc3c2)cnc2c1NCCO2`: the IC50 in test [3] amounted to 7.8 nM.

Regarding `Cc1c(-c2cc(N)c3cnc(Nc4cnn(C5CC5)c4)nc3c2)cnc2c1NCCO2`, the IC50 was 5.7 nM in test [3] and 23.1 nM in [8]. Moreover, the inhibition in test [1] was 96.3%. For the same molecule, the inhibition result in test [10] and in test [11] was “Active” each time.

Regarding `CC1(C)OC(=O)c2ccc(Nc3ncc(-c4nnco4)c(N[C@H](CO)c4ccccc4)n3)cc21`, the inhibition worked out at 92.5% in test [1] and 99.7% in test [2].

On to `COc1ncc(-c2cc(N)c3cnc(Nc4cnn(C5CC5)c4)nc3c2)cc1N`, for which the inhibition in test [1] is 0.1%; in test [2], 60.6%.

For the molecule `CNCc1ccc(Nc2ncc3c(N)cc(-c4cnc5c(c4C)NCCO5)cc3n2)cc1`, the concentration for half-maximal inhibition (IC50) in test [3] stood at 4.3 nM.

Turning to `CCn1ccc(Nc2ncc3c(N)cc(-c4cnc5c(c4C)NCCO5)cc3n2)n1`, the IC50 in test [3] amounted to 15.5 nM.

For `N#Cc1ccncc1-c1cc(N)c2cnc(Nc3cnn(C4CC4)c3)nc2c1`, the inhibition is 36.3% in [1] and 85.5% in test [2].

Take `Cc1nn(C)cc1Nc1ncc2c(N)cc(-c3cnc4c(c3C)NCCO4)cc2n1`: in [3], the half-inhibitory concentration (IC50) was 7.9 nM.

For `Cc1c(-c2cc(N)c3cnc(Nc4ccc5c(c4)CN(C(C)C)CC5)nc3c2)cnc2c1NCCO2`, in test [3], the IC50 is 5.2 nM.

For the molecule `Cc1ccncc1-c1cc(N)c2cnc(Nc3cnn(C4CC4)c3)nc2c1`, in test [3], the IC50 was found to be 17.9 nM. The values for the inhibition in test [1] and in [2] were 87.2% and 98.1%, respectively.

For `Nc1cc(-c2ccccn2)cc2nc(Nc3cnn(C4CC4)c3)ncc12`, the inhibition was -6.9% in test [1] and 30.3% in test [2].

As for `Nc1cncc(-c2cc(N)c3cnc(Nc4cnn(C5CC5)c4)nc3c2)c1`, the IC50 in test [3] worked out at 33.2 nM. The inhibition in test [1] amounted to 80%.

For `Nc1cc(-c2ccccc2)cc2nc(Nc3cnn(C4CC4)c3)ncc12`, the figures for the inhibition in [1] and in [2] were 1.6% and 33.6%, respectively.
